Assay results taken from patent publication US8536354B2, “Steroidal ligands and their use in gene switch modulation” (Intrexon Corporation, priority 2008, dated 2013).
Like-named read-outs stand apart in the source and are kept apart here.

How the values were obtained:
[1] = target: BmEcR (GAL4-EcR DEF with VP16-RXR-USP chimera) (Bombyx mori, UniProt P49881); assay: Two-hybrid gene switch assay, luciferase reporter, BmEcR, mouse NIH3T3 cells; type: cell-based
[2] = target: wild-type Drosophila melanogaster EcR (DmEcR; GAL4-EcR DEF with VP16-RXR-USP chimera) (Drosophila melanogaster, UniProt P34021); assay: Two-hybrid gene switch assay, luciferase reporter, wild-type DmEcR, mouse NIH3T3 cells; type: cell-based; details: GAL4-EcR(DEF) with VP16-RXR-USP chimera
wild-type Drosophila melanogaster EcR (DmEcR; GAL4-EcR DEF with VP16-RXR-USP chimera), sequence (P34021 with tags, fused parts or gaps limits assumed): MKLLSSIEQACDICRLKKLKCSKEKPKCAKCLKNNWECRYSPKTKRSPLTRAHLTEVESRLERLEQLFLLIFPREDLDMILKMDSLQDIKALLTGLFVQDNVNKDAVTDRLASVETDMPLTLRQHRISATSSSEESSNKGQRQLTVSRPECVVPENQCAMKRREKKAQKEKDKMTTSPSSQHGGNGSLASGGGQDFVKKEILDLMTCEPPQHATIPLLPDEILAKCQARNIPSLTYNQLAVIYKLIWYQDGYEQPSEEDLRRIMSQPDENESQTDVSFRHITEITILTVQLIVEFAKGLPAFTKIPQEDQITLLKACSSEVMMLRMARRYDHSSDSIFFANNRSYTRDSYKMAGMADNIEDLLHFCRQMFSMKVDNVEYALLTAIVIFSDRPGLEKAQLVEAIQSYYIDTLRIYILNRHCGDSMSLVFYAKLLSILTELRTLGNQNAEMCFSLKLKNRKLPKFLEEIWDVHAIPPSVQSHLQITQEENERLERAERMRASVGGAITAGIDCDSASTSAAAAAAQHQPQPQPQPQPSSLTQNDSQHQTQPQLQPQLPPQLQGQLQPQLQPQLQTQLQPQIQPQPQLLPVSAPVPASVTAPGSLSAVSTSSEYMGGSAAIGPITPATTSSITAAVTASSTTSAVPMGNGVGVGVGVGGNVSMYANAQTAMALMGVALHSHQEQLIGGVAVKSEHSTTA

[3] = target: T1, wild-type CfEcR (GAL4-CfEcR-DEF with VP16-RXR-USP chimera) (Choristoneura fumiferana, UniProt O77255); assay: Two-hybrid gene switch assay, luciferase reporter, wild-type CfEcR, mouse NIH3T3 cells
T1 sequence (O77255 219-541): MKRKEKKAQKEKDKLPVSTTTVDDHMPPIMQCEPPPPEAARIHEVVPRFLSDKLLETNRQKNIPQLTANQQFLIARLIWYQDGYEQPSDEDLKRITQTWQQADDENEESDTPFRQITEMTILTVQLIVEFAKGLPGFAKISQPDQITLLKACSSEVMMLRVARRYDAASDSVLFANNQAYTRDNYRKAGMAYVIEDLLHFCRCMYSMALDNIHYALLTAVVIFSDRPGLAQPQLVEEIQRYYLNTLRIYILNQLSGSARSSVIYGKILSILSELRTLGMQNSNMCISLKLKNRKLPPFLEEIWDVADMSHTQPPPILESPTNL
T1 sequence (P28702 1-533 partner): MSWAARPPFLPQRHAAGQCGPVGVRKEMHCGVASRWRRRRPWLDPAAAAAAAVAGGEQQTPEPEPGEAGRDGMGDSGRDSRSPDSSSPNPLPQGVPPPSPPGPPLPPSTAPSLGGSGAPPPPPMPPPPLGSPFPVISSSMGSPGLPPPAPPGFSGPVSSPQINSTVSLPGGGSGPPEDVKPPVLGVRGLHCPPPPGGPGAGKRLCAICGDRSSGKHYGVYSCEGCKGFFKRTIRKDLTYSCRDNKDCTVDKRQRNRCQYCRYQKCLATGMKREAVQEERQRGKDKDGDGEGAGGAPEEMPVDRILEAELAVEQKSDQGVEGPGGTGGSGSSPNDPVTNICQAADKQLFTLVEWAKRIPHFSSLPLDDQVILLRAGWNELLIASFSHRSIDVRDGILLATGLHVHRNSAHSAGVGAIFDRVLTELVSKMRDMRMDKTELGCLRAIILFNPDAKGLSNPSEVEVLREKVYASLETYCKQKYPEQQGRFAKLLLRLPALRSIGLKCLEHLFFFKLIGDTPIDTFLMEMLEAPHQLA

[4] = target: T2, TmEcR (GAL4-EcR DEF with VP16-RXR partner) (Tenebrio molitor, UniProt O02035); assay: Two-hybrid gene switch assay, luciferase reporter, TmEcR, mouse NIH3T3 cells; details: EC50, FIG. 14A/14B, GAL4-EcR(DEF)
T2 sequence (O02035 194-491): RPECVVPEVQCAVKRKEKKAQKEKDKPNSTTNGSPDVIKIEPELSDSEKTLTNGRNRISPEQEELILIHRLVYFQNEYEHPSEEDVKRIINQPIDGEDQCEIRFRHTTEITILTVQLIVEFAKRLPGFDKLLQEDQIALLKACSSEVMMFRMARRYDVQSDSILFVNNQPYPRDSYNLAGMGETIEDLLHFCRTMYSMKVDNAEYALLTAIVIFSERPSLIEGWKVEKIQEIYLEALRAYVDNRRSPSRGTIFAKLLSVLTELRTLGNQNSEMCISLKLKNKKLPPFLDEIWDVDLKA
T2 sequence (P28704 1-520 partner): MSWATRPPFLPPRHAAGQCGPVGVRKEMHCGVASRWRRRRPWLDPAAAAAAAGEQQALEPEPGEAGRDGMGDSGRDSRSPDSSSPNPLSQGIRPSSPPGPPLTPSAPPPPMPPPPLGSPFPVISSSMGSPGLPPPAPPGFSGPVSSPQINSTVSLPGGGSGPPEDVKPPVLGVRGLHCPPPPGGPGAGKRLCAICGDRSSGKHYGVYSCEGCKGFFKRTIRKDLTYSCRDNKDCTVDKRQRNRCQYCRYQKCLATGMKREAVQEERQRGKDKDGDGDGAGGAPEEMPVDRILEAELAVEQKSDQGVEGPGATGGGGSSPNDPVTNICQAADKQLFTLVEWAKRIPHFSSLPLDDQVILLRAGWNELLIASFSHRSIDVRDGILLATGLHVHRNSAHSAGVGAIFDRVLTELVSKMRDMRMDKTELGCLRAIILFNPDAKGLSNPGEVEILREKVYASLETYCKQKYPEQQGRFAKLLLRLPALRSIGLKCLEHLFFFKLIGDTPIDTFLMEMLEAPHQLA

[5] = target: T3, MsEcR (GAL4-EcR DEF with VP16-RXR-USP chimera) (Manduca sexta, UniProt P49883); assay: Two-hybrid gene switch assay, luciferase reporter, MsEcR, mouse NIH3T3 cells; details: EC50, FIG. 13A/13B, GAL4-EcR(DEF) with VP16-RXR-USP chimera
T3 sequence (P49883 1-556): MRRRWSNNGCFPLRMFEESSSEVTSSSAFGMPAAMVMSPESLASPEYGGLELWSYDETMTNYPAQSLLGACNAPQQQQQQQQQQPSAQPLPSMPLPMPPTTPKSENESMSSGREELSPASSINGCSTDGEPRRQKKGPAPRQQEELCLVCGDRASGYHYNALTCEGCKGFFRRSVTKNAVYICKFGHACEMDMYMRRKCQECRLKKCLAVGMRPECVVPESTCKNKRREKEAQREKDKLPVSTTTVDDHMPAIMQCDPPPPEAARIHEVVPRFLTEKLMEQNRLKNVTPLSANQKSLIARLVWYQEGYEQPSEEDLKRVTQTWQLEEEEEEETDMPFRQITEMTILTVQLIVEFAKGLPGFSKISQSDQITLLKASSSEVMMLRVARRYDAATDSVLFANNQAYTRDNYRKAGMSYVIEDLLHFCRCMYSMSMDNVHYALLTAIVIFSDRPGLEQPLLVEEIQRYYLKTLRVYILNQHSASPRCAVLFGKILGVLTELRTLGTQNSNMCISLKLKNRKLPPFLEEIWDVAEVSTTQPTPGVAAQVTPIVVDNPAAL
T3 sequence (P28702 1-533 partner): T1 sequence (P28702 1-533 partner)

[6] = system: NcEcR (GAL4-EcR DEF with VP16-RXR partner); assay: Two-hybrid gene switch assay, luciferase reporter, NcEcR, mouse NIH3T3 cells; details: FIG. 14A/14B, GAL4-EcR(DEF)
[7] = target: T4, BaEcR (GAL4-EcR DEF with VP16-RXR-USP chimera) (Bemisia tabaci, UniProt A0A6M3RDR8); assay: Two-hybrid gene switch assay, luciferase reporter, BaEcR, mouse NIH3T3 cells; details: EC50, FIG. 14A/14B, GAL4-EcR(DEF) with VP16-RXR-USP chimera
T4 sequence (A0A6M3RDR8 115-530): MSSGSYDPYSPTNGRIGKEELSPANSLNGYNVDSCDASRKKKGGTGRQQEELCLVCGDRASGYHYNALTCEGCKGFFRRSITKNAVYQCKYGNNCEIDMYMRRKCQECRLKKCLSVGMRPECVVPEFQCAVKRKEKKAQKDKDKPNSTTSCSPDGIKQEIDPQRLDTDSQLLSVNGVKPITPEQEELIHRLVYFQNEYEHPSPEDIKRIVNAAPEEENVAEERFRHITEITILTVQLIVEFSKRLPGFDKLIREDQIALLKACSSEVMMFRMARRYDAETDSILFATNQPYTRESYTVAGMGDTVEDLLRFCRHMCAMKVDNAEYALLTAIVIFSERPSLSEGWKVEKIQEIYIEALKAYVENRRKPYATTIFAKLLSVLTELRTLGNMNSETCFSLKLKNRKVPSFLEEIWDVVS
T4 sequence (P28702 1-533 partner): T1 sequence (P28702 1-533 partner)

[8] = target: T5, AmaEcR (GAL4-EcR DEF with VP16-RXR-USP chimera) (Amblyomma americanum, UniProt O44338); assay: Two-hybrid gene switch assay, luciferase reporter, AmaEcR, mouse NIH3T3 cells; details: EC50, FIG. 14A/14B, GAL4-EcR(DEF) with VP16-RXR-USP chimera
T5 sequence (O44338 255-570): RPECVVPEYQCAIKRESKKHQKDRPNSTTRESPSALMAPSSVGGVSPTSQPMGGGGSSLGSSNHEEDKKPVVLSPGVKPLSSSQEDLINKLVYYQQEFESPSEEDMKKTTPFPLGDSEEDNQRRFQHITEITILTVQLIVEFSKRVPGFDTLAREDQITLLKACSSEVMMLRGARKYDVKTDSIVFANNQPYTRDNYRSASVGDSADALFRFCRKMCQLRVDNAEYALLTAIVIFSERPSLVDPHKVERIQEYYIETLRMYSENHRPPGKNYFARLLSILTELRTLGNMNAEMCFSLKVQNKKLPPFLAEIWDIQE
T5 sequence (P28702 1-533 partner): T1 sequence (P28702 1-533 partner)

[9] = target: wild-type Aedes aegypti EcR (AaEcR; GAL4-EcR DEF with VP16-RXR-USP chimera) (Aedes aegypti, UniProt P49880); assay: Two-hybrid gene switch assay, luciferase reporter, wild-type AaEcR, mouse NIH3T3 cells; type: cell-based; details: GAL4-EcR(DEF) with VP16-RXR-USP chimera
wild-type Aedes aegypti EcR (AaEcR; GAL4-EcR DEF with VP16-RXR-USP chimera), sequence (P49880 with tags, fused parts or gaps limits assumed, change not shown): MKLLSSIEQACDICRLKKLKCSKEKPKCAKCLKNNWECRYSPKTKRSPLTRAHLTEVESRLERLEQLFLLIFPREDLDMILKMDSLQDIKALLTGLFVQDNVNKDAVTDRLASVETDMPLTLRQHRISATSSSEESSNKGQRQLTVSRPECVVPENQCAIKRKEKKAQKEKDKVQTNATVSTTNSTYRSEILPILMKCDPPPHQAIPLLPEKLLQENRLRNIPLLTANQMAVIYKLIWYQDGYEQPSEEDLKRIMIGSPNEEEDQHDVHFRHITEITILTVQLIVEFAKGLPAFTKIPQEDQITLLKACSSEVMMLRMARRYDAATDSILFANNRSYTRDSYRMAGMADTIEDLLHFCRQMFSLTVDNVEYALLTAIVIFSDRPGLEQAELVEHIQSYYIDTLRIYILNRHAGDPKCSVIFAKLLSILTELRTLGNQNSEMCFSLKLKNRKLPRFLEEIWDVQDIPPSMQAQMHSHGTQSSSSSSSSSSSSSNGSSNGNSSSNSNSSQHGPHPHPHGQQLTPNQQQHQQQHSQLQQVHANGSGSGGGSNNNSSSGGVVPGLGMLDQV

BmEcR (GAL4-EcR DEF with VP16-RXR-USP chimera), sequence (P49881 other isoform, or with tags, fused parts or gaps, change not shown): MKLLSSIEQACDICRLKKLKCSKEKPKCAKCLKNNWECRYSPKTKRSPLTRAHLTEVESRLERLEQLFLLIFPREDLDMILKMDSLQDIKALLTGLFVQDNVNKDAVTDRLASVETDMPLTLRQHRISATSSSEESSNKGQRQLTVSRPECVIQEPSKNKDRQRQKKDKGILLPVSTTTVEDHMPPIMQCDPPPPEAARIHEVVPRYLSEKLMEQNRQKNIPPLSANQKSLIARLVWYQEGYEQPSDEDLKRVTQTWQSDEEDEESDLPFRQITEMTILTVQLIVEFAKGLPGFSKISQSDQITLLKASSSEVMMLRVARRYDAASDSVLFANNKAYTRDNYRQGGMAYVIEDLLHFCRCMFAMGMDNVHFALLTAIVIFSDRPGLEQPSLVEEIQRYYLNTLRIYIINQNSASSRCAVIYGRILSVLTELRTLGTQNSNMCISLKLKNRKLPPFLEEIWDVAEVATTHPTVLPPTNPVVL

SMILES	EC50 [1]	EC50 ([2]; EC50, FIG. 14A/14B)	EC50 [3]	EC50 [4]	EC50 [5]	EC50 [6]	EC50 [7]	EC50 [8]	EC50 ([9]; EC50, FIG. 14A/14B)	EC50 ([1]; read-out: EC50)	EC50 ([1]; FIG. 13A/13B, BmEcR, GAL4-EcR(DEF) with VP16-RXR-USP chimera, read-out: EC50)	EC50 ([2]; FIG. 14A/14B, read-out: EC50)	EC50 ([9]; FIG. 14A/14B, read-out: EC50)
CC(C)(O)CCCC(C)(O)C1CCC2(O)C3=CC(=O)C4CC(O)C(O)CC4(C)C3CCC12C (stereo not drawn)	> 33 µM	~20 µM	> 33 µM	~20 µM	~15 µM	3.04 µM	~10 µM	~10 µM					
C=C(C)CC[C@@H](O)[C@](C)(O)[C@H]1CC[C@@]2(O)C3=CC(=O)[C@@H]4C[C@@H](O)[C@@H](O)C[C@]4(C)[C@H]3CC[C@]12C [listing 1 of 2 here]		0.912 µM		1.4 µM		0.006 µM	0.382 µM		0.024 µM				
C=C(C)CC[C@@H](O)[C@](C)(O)[C@H]1CC[C@@]2(O)C3=CC(=O)[C@@H]4C[C@@H](O)[C@@H](O)C[C@]4(C)[C@H]3CC[C@]12C [listing 2 of 2 here]			~12 µM		0.608 µM					6.28 µM			
CC(C)(O)CC[C@@H](O)[C@](C)(O)[C@H]1CC[C@@]2(O)C3=CC(=O)[C@@H]4C[C@H](O)[C@@H](O)C[C@]4(C)[C@H]3CC[C@]12C				> 33 µM	~10 µM	4.84 µM	~20 µM	~10 µM			> 33 µM	~20 µM	~8 µM
